# Experimental data published in PMC8079033, “Design, synthesis, anticancer evaluation, and molecular modelling studies of novel tolmetin derivatives as potential VEGFR-2 inhibitors and apoptosis inducers” (Journal of Enzyme Inhibition and Medicinal Chemistry, 2021).
# Key:
# Assay in all cases: NCI 60-cell line one-dose antiproliferative screen (SRB)
# Assay type in all cases: cell-based
# M14 = conditions: Homo sapiens, read-out: growth inhibition % (GI%)
# Method in brief: (§1)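 Single dose 10 µM; 48 h exposure, 37 °C/5% CO2, after 24 h preincubation. TCA fix, SRB stain, A515. % growth vs untreated control and time-zero plates, reported as GI%.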
# SN 12 C = conditions: Homo sapiens, SN12C, read-out: growth inhibition % (GI%)
# Method in brief: as §1
# OVCAR-8 = conditions: Homo sapiens, read-out: growth inhibition % (GI%)
# Method in brief: as §1
# SNB-75 = conditions: Homo sapiens, read-out: growth inhibition % (GI%)
# Method in brief: as §1
# HOP-92 = conditions: Homo sapiens, read-out: growth inhibition % (GI%)
# Method in brief: as §1
# MDA-MB-231/ATCC = conditions: Homo sapiens, read-out: growth inhibition % (GI%)
# Method in brief: as §1
# A549/ATCC = conditions: Homo sapiens, read-out: growth inhibition % (GI%)
# Method in brief: as §1
# PC-3 = conditions: Homo sapiens, read-out: growth inhibition % (GI%)
# Method in brief: as §1
# SF-268 = conditions: Homo sapiens, read-out: growth inhibition % (GI%)
# Method in brief: as §1
# RPMI-8226 = conditions: Homo sapiens, read-out: growth inhibition % (GI%)
# Method in brief: as §1
# UACC-62 = conditions: Homo sapiens, read-out: growth inhibition % (GI%)
# Method in brief: as §1
# U251 = conditions: Homo sapiens, U-251, read-out: growth inhibition % (GI%)
# Method in brief: as §1
# BT-5 = conditions: Homo sapiens, read-out: growth inhibition % (GI%)
# Method in brief: as §1
# NCI-H322M = conditions: Homo sapiens, read-out: growth inhibition % (GI%)
# Method in brief: as §1
# SNB-19 = conditions: Homo sapiens, read-out: growth inhibition % (GI%)
# Method in brief: as §1
# HCT-116 = conditions: Homo sapiens, read-out: growth inhibition % (GI%)
# Method in brief: as §1
# NCI-H522 = conditions: Homo sapiens, read-out: growth inhibition % (GI%)
# Method in brief: as §1
# SF-295 = conditions: Homo sapiens, read-out: growth inhibition % (GI%)
# Method in brief: as §1
# LOX IMVI = conditions: Homo sapiens, read-out: growth inhibition % (GI%)
# Method in brief: as §1
# MDA-MB-468 = conditions: Homo sapiens, read-out: growth inhibition % (GI%)
# Method in brief: as §1
# MOLT-4 = conditions: Homo sapiens, read-out: growth inhibition % (GI%)
# Method in brief: as §1
# NCI/ADR-RES = conditions: Homo sapiens, read-out: growth inhibition % (GI%)
# Method in brief: as §1
# HOP-62 = conditions: Homo sapiens, read-out: growth inhibition % (GI%)
# Method in brief: as §1
# A498 = conditions: Homo sapiens, read-out: growth inhibition % (GI%)
# Method in brief: as §1
# IGROV1 = conditions: Homo sapiens, IGROV-1, read-out: growth inhibition % (GI%)
# Method in brief: as §1
# SW-620 = conditions: Homo sapiens, read-out: growth inhibition % (GI%)
# Method in brief: as §1
# K-562 = conditions: Homo sapiens, K562, read-out: growth inhibition % (GI%)
# Method in brief: as §1
# EKVX = conditions: Homo sapiens, read-out: growth inhibition % (GI%)
# Method in brief: as §1
# RXF 393 = conditions: Homo sapiens, read-out: growth inhibition % (GI%)
# Method in brief: as §1
# T-47D = conditions: Homo sapiens, T47D, read-out: growth inhibition % (GI%)
# Method in brief: as §1
# MDA-MB-435 = conditions: Homo sapiens, read-out: growth inhibition % (GI%)
# Method in brief: as §1
# CCRF-CEM = conditions: Homo sapiens, read-out: growth inhibition % (GI%)
# Method in brief: as §1
# MCF7 = conditions: Homo sapiens, read-out: growth inhibition % (GI%)
# Method in brief: as §1
Compound,inhibition at 10 µM (M14) [%],inhibition at 10 µM (SN 12 C) [%],inhibition at 10 µM (OVCAR-8) [%],inhibition at 10 µM (SNB-75) [%],inhibition at 10 µM (MDA-MB-231/ATCC) [%],inhibition at 10 µM (A549/ATCC) [%],inhibition at 10 µM (PC-3) [%],inhibition at 10 µM (SF-268) [%],inhibition at 10 µM (RPMI-8226) [%],inhibition at 10 µM (UACC-62) [%],inhibition at 10 µM (U251) [%],inhibition at 10 µM (BT-5) [%],inhibition at 10 µM (NCI-H322M) [%],inhibition at 10 µM (SNB-19) [%],inhibition at 10 µM (HCT-116) [%],inhibition at 10 µM (NCI-H522) [%],inhibition at 10 µM (SF-295) [%],inhibition at 10 µM (LOX IMVI) [%],inhibition at 10 µM (MDA-MB-468) [%],inhibition at 10 µM (MOLT-4) [%],also measured
"Cc1ccc(C(=O)c2ccc(CC(=O)NN=Cc3ccccc3O)n2C)cc1 [Compound 5a, N′-(2-Hydroxybenzylidene)-2–(1-methyl-5–(4-methylbenzoyl)-1H-pyrrol-2-yl)aceto hydrazide]",17.1,10.2,21,40.4,17.4,13.9,13.2,29.1,18.6,12.8,23.8,14.9,21.1,20.7,< 10,24.9,< 10,42,18.9,26,inhibition at 10 µM (HOP-92): < 10%; inhibition at 10 µM (NCI/ADR-RES): 30.6%; inhibition at 10 µM (HOP-62): 24%; inhibition at 10 µM (A498): 18%; inhibition at 10 µM (IGROV1): 19.1%; inhibition at 10 µM (SW-620): 10.4%; inhibition at 10 µM (K-562): 15.8%; inhibition at 10 µM (EKVX): 17.3%; inhibition at 10 µM (RXF 393): 10.4%; inhibition at 10 µM (T-47D): 24.4%; inhibition at 10 µM (MDA-MB-435): 16.8%; inhibition at 10 µM (CCRF-CEM): 45.9%; inhibition at 10 µM (MCF7): 18.5%
"Cc1ccc(C(=O)c2ccc(CC(=O)NN=Cc3cccc(O)c3O)n2C)cc1 [Compound 5b, N′-(2,3-Dihydroxybenzylidene)-2–(1-methyl-5–(4-methylbenzoyl)-1H-pyrrol-2-yl) acetohydrazide]",71.5,53.2,61.4,74.6,54.7,41.3,40.8,62.8,64.9,60.9,74,54.3,45.6,54,69.2,51.2,16.5,82.7,45.1,88.8,inhibition at 10 µM (HOP-92): 43.8%; inhibition at 10 µM (NCI/ADR-RES): 80.9%; inhibition at 10 µM (HOP-62): 50.1%; inhibition at 10 µM (A498): < 10%; inhibition at 10 µM (IGROV1): 48.8%; inhibition at 10 µM (SW-620): 65.8%; inhibition at 10 µM (K-562): 69.6%; inhibition at 10 µM (EKVX): 41.2%; inhibition at 10 µM (RXF 393): 70.3%; inhibition at 10 µM (T-47D): 74.1%; inhibition at 10 µM (MDA-MB-435): 38.9%; inhibition at 10 µM (CCRF-CEM): 86.9%; inhibition at 10 µM (MCF7): 84%
"Cc1ccc(C(=O)c2ccc(CC(=O)NN=Cc3ccc(O)cc3O)n2C)cc1 [Compound 5c, N′-(2,4-Dihydroxybenzylidene)-2–(1-methyl-5–(4-methylbenzoyl)-1H-pyrrol-2-yl) acetohydrazide]",71.2,44.3,51.6,68.9,48.6,53.4,38.9,62.7,51.6,70.2,62.4,49.2,62,50.6,65.1,44.5,52.8,81.2,53.2,87,inhibition at 10 µM (HOP-92): 16.9%; inhibition at 10 µM (NCI/ADR-RES): 65.4%; inhibition at 10 µM (HOP-62): 59.4%; inhibition at 10 µM (A498): 12.6%; inhibition at 10 µM (IGROV1): 58.3%; inhibition at 10 µM (SW-620): 57.8%; inhibition at 10 µM (K-562): 55.1%; inhibition at 10 µM (EKVX): 65.8%; inhibition at 10 µM (RXF 393): 50.3%; inhibition at 10 µM (T-47D): 49.8%; inhibition at 10 µM (MDA-MB-435): 36.9%; inhibition at 10 µM (CCRF-CEM): 83.2%; inhibition at 10 µM (MCF7): 60.8%
"Cc1ccc(C(=O)c2ccc(CC(=O)NN=Cc3c[nH]c4ccccc34)n2C)cc1 [Compound 5f, N′-((1H-Indol-3-yl)methylene)-2–(1-methyl-5–(4-methylbenzoyl)-1H-pyrrol-2-yl) acetohydrazide]",< 10,< 10,< 10,25.5,12.4,15.4,< 10,10.5,15.9,12.2,10.4,< 10,< 10,12.5,< 10,18.7,< 10,16.5,16.8,16.5,inhibition at 10 µM (HOP-92): < 10%; inhibition at 10 µM (NCI/ADR-RES): < 10%; inhibition at 10 µM (HOP-62): < 10%; inhibition at 10 µM (A498): 15.6%; inhibition at 10 µM (IGROV1): 15.2%; inhibition at 10 µM (SW-620): < 10%; inhibition at 10 µM (K-562): < 10%; inhibition at 10 µM (EKVX): 17.7%; inhibition at 10 µM (RXF 393): < 10%; inhibition at 10 µM (T-47D): 22.1%; inhibition at 10 µM (MDA-MB-435): < 10%; inhibition at 10 µM (CCRF-CEM): 24.6%; inhibition at 10 µM (MCF7): 27%
"Cc1ccc(C(=O)c2ccc(CC(=O)NN3C(=O)CCC3=O)n2C)cc1 [Compound 7a, N-(2,5-Dioxopyrrolidin-1-yl)-2–(1-methyl-5–(4-methylbenzoyl)-1H-pyrrol-2-yl) acetamide]",< 10,19.1,11,40.9,13.7,11.1,10,11.9,20.2,12.4,< 10,< 10,< 10,20,11.3,30.8,< 10,12.8,< 10,< 10,inhibition at 10 µM (HOP-92): 19.2%; inhibition at 10 µM (NCI/ADR-RES): 12.8%; inhibition at 10 µM (HOP-62): 15.5%; inhibition at 10 µM (A498): 14.5%; inhibition at 10 µM (IGROV1): 22.3%; inhibition at 10 µM (SW-620): < 10%; inhibition at 10 µM (K-562): 11.2%; inhibition at 10 µM (EKVX): 23.9%; inhibition at 10 µM (RXF 393): < 10%; inhibition at 10 µM (T-47D): 42.8%; inhibition at 10 µM (MDA-MB-435): < 10%; inhibition at 10 µM (CCRF-CEM): < 10%; inhibition at 10 µM (MCF7): 14.4%
"Cc1ccc(C(=O)c2ccc(CC(=O)NN3C(=O)C=CC3=O)n2C)cc1 [Compound 7b, N-(2,5-Dioxo-2,5-dihydro-1H-pyrrol-1-yl)-2–(1-methyl-5–(4-methylbenzoyl)-1H-pyrrol-2-yl)acetamide]",< 10,14.8,< 10,16,11.6,12.8,10.7,12.3,< 10,< 10,< 10,< 10,< 10,11,14,15.9,< 10,11.1,< 10,14,inhibition at 10 µM (NCI/ADR-RES): 12.3%; inhibition at 10 µM (HOP-62): 10.4%; inhibition at 10 µM (A498): 10.7%; inhibition at 10 µM (IGROV1): 22.2%; inhibition at 10 µM (SW-620): < 10%; inhibition at 10 µM (K-562): 16.5%; inhibition at 10 µM (EKVX): 25.7%; inhibition at 10 µM (RXF 393): 13%; inhibition at 10 µM (T-47D): 25.5%; inhibition at 10 µM (MDA-MB-435): < 10%; inhibition at 10 µM (CCRF-CEM): < 10%; inhibition at 10 µM (MCF7): 13.2%
